The subject of this series is CCRIS mutagenicity, Ames/micronucleus/aberration tests. Put plainly: CCRIS mutagenicity studies.
Where [1] appears, read: Test System: AMES SALMONELLA TYPHIMURIUM, Strain/Indicator: TA98, Metabolic Activation: NONE, Method: STANDARD PLATE.
The mark [2] stands for this setting: Test System: AMES SALMONELLA TYPHIMURIUM, Strain/Indicator: TA98, Metabolic Activation: RAT, LIVER, S-9, AROCLOR 1254, Method: STANDARD PLATE.
The mark [3] stands for this setting: Test System: AMES SALMONELLA TYPHIMURIUM, Strain/Indicator: TA100, Metabolic Activation: NONE, Method: STANDARD PLATE.
Where [4] appears, read: Test System: AMES SALMONELLA TYPHIMURIUM, Strain/Indicator: TA100, Metabolic Activation: RAT, LIVER, S-9, AROCLOR 1254, Method: STANDARD PLATE.
Where [5] appears, read: Test System: AMES SALMONELLA TYPHIMURIUM, Strain/Indicator: TA1535, Metabolic Activation: NONE, Method: STANDARD PLATE.
The mark [6] stands for this setting: Test System: AMES SALMONELLA TYPHIMURIUM, Strain/Indicator: TA1535, Metabolic Activation: RAT, LIVER, S-9, AROCLOR 1254, Method: STANDARD PLATE.
[7] abbreviates: Test System: AMES SALMONELLA TYPHIMURIUM, Strain/Indicator: TA1537, Metabolic Activation: NONE, Method: STANDARD PLATE.
Where [8] appears, read: Test System: AMES SALMONELLA TYPHIMURIUM, Strain/Indicator: TA1537, Metabolic Activation: RAT, LIVER, S-9, AROCLOR 1254, Method: STANDARD PLATE.
The mark [9] stands for this setting: Test System: AMES SALMONELLA TYPHIMURIUM, Strain/Indicator: TA1538, Metabolic Activation: NONE, Method: STANDARD PLATE.

The record followed here is PubChem BioAssay AID1259407 (Chemical Carcinogenesis Research Information System (CCRIS), 2018).

Active and inactive are the calls of the source. The rule behind the calls is not given here.

`CNCCC=C1c2ccccc2CCc2ccccc21`: the mutagenic call reads like this: under setting [1], “inactive; negative”; under setting [2], “inactive; negative”; under setting [3], “inactive; negative”; under setting [4], “inactive; negative”; under setting [5], “inactive; negative”; under setting [6], “inactive; negative”. Moreover, the mutagenic call under setting [7] is “inactive; negative” and the mutagenic call under setting [8] was “inactive; negative”.
With `FC(F)(Br)C(F)(F)I`, the mutagenic call is, setting by setting: (Test System: Ames Salmonella typhimurium, Strain/Indicator: TA98, Metabolic Activation: None, Method: Preincubation) “inactive; negative”; (Test System: Ames Salmonella typhimurium, Strain/Indicator: TA98, Metabolic Activation: Rat, Liver, S9, Sodium phenobarbital and 5,6-benzoflavone (10%), Method: Preincubation) “inactive; negative”; (Test System: Ames Salmonella typhimurium, Strain/Indicator: TA100, Metabolic Activation: None, Method: Preincubation) “inactive; negative”; (Test System: Ames Salmonella typhimurium, Strain/Indicator: TA100, Metabolic Activation: Rat, Liver, S9, Sodium phenobarbital and 5,6-benzoflavone (10%), Method: Preincubation) “inactive; negative”; (Test System: Ames Salmonella typhimurium, Strain/Indicator: TA1535, Metabolic Activation: None, Method: Preincubation) “active; positive”; (Test System: Ames Salmonella typhimurium, Strain/Indicator: TA1535, Metabolic Activation: Rat, Liver, S9, Sodium phenobarbital and 5,6-benzoflavone (10%), Method: Preincubation) “active; positive”. Moreover, the mutagenic call runs as follows: (Test System: Ames Salmonella typhimurium, Strain/Indicator: TA1537, Metabolic Activation: None, Method: Preincubation) “inactive; negative”; (Test System: Ames Salmonella typhimurium, Strain/Indicator: TA1537, Metabolic Activation: Rat, Liver, S9, Sodium phenobarbital and 5,6-benzoflavone (10%), Method: Preincubation) “inactive; negative”; (Test System: E. coli, Strain/Indicator: WP2uvrA/pKM101, Metabolic Activation: None, Method: Preincubation) “active; positive”; (Test System: E. coli, Strain/Indicator: WP2uvrA/pKM101, Metabolic Activation: Rat, Liver, S9, Sodium phenobarbital and 5,6-benzoflavone (10%), Method: Preincubation) “active; positive”.
Take `O=c1c(O)c(C2=CC(O)(CCO)C(O)(CCO)C=C2)oc2c1C(O)=CC(O)(CCO)C2` (stereo unspecified): the mutagenic call was “inactive; negative” under setting [1]; “inactive; negative” under setting [2]; “inactive; negative” under setting [3]; “inactive; negative” under setting [4]; “inactive; negative” under setting [5]; “inactive; negative” under setting [6]. For the same molecule, the mutagenic call is “inactive; negative” under setting [7]; “inactive; negative” under setting [8]; “inactive; negative” under setting [9]; “inactive; negative” (Test System: AMES SALMONELLA TYPHIMURIUM, Strain/Indicator: TA1538, Metabolic Activation: RAT, LIVER, S-9, AROCLOR 1254, Method: STANDARD PLATE).
Regarding `O=C(Nc1cccc(F)c1)c1csc([N+](=O)[O-])c1`, the mutagenic call runs as follows: under setting [1], “active; positive”; under setting [3], “active; positive”.
Regarding `C=COC(N)=O`, the mutagenic call runs as follows: (End Point: In vivo micronucleus, Test System: Peripheral blood reticulocytes, Species: Mouse, Strain/Sex: F1 (Big Blue x A/J) transgenic/Male and female, Route: Intraperitoneal) “active; positive”; (Test System: UDS MOUSE SPERMATIDS, Strain/Indicator: THY INCORP, Metabolic Activation: NONE) “active; positive”.
Turning to `O=C(O)CC(O)(CC(=O)O)C(=O)O`, the mutagenic call is “inactive; negative” (Test System: AMES SALMONELLA TYPHIMURIUM, Strain/Indicator: TA97, Metabolic Activation: NONE, Method: PREINCUBATION); “inactive; negative” (Test System: AMES SALMONELLA TYPHIMURIUM, Strain/Indicator: TA97, Metabolic Activation: NONE, Method: STANDARD PLATE); “inactive; negative” (Test System: AMES SALMONELLA TYPHIMURIUM, Strain/Indicator: TA97, Metabolic Activation: RAT, LIVER, S-9, AROCLOR 1254, Method: PREINCUBATION); “inactive; negative” (Test System: AMES SALMONELLA TYPHIMURIUM, Strain/Indicator: TA97, Metabolic Activation: RAT, LIVER, S-9, PHENOBARBITAL, Method: STANDARD PLATE); “inactive; negative” (Test System: AMES SALMONELLA TYPHIMURIUM, Strain/Indicator: TA97, Metabolic Activation: S-9, Method: PREINCUBATION); “inactive; negative” under setting [1]. For the same molecule, the mutagenic call (Test System: AMES SALMONELLA TYPHIMURIUM, Strain/Indicator: TA98, Metabolic Activation: RAT, LIVER, S-9, PHENOBARBITAL, Method: STANDARD PLATE) was “inactive; negative”; the mutagenic call under setting [3] was “inactive; negative”; the mutagenic call (Test System: AMES SALMONELLA TYPHIMURIUM, Strain/Indicator: TA100, Metabolic Activation: RAT, LIVER, S-9, PHENOBARBITAL, Method: STANDARD PLATE) is “inactive; negative”; the mutagenic call (Test System: AMES SALMONELLA TYPHIMURIUM, Strain/Indicator: TA102, Metabolic Activation: NONE, Method: PREINCUBATION) was “inactive; negative”; the mutagenic call (Test System: AMES SALMONELLA TYPHIMURIUM, Strain/Indicator: TA102, Metabolic Activation: RAT, LIVER, S-9, AROCLOR 1254, Method: PREINCUBATION) was “inactive; negative”; the mutagenic call (Test System: AMES SALMONELLA TYPHIMURIUM, Strain/Indicator: TA102, Metabolic Activation: S-9, Method: PREINCUBATION) is “inactive; negative”. The mutagenic call by setting is: (Test System: AMES SALMONELLA TYPHIMURIUM, Strain/Indicator: TA104, Metabolic Activation: NONE, Method: STANDARD PLATE) “inactive; negative”; (Test System: AMES SALMONELLA TYPHIMURIUM, Strain/Indicator: TA104, Metabolic Activation: RAT, LIVER, S-9, PHENOBARBITAL, Method: STANDARD PLATE) “inactive; negative”.
As to `CCC(C)ON=O` (stereo unspecified), the mutagenic call by setting is: (Test System: AMES SALMONELLA TYPHIMURIUM, Strain/Indicator: TA98, Metabolic Activation: HAMSTER, LIVER, S-9, AROCLOR 1254, Method: STANDARD PLATE) “inactive; negative”; under setting [1], “inactive; negative”; under setting [2], “inactive; negative”; (Test System: AMES SALMONELLA TYPHIMURIUM, Strain/Indicator: TA100, Metabolic Activation: HAMSTER, LIVER, S-9, AROCLOR 1254, Method: STANDARD PLATE) “inactive; negative”; under setting [3], “inactive; negative”; under setting [4], “inactive; negative”. The mutagenic call is, setting by setting: (Test System: AMES SALMONELLA TYPHIMURIUM, Strain/Indicator: TA1535, Metabolic Activation: HAMSTER, LIVER, S-9, AROCLOR 1254, Method: STANDARD PLATE) “active; positive”; under setting [5], “inactive; negative”; under setting [6], “active; positive”; (Test System: AMES SALMONELLA TYPHIMURIUM, Strain/Indicator: TA1537, Metabolic Activation: HAMSTER, LIVER, S-9, AROCLOR 1254, Method: STANDARD PLATE) “inactive; negative”; under setting [7], “inactive; negative”; under setting [8], “inactive; negative”. The mutagenic call was “active; positive. reevaluation of results: positive” (Test System: MOUSE LYMPHOMA, Strain/Indicator: L5178Y (TK+/TK-), Metabolic Activation: NONE, Method: SUSPENSION/PLATE) and “active; positive. reevaluation of results: positive” (Test System: MOUSE LYMPHOMA, Strain/Indicator: L5178Y (TK+/TK-), Metabolic Activation: RAT, LIVER, S-9, AROCLOR 1254, Method: SUSPENSION/PLATE).
Regarding `c1cc2c3c(c4c(ccc5ccccc54)cc3c1)C1=C2O1`, for the setting “Test System: CHINESE HAMSTER V-79, Strain/Indicator: V-79/6-THIOGUANINE, Metabolic Activation: NONE, Method: SUSPENSION/PLATE”, the mutagenic call is “active; positive”.
Turning to `CC(C)(C)N(Cc1ccccc1)CC(O)c1ccc(O)c(CO)c1` (stereo unspecified), the mutagenic call (Test System: AMES SALMONELLA TYPHIMURIUM, Strain/Indicator: TA98(PKM101), Metabolic Activation: NONE, Method: STANDARD PLATE) is “inactive; negative”; the mutagenic call (Test System: AMES SALMONELLA TYPHIMURIUM, Strain/Indicator: TA100(PKM101), Metabolic Activation: NONE, Method: STANDARD PLATE) is “active; positive”; the mutagenic call under setting [5] was “inactive; negative”; the mutagenic call under setting [9] was “inactive; negative”.
As to `[N-]=[N+]=NC[C@@H](CO)Cc1ccccc1`, the mutagenic call (Test System: AMES SALMONELLA TYPHIMURIUM, Strain/Indicator: TA100, Metabolic Activation: RAT, LIVER, S-9, PCB, Method: PREINCUBATION) is “active; positive”.
